Laboratory results taken from patent publication US4783482A, “Bis(thiocyanato)palladium(II)complexes” (Engelhard Corporation, priority 1985, dated 1988).
Values joined by “and” are separate entries in the source; they are usually repeats but may differ in a detail not shown here. Equal entries are not always repeated.

Assays:
S180 ascites [1] = assay: Anti-tumor evaluation: % increase in life span (% ILS) and survivors, S180 ascites in female CFW Swiss mice; type: in vivo; conditions: for Best % ILS: best over doses
Experimental: The above-prepared compounds were evaluated against S180 ascites in female CFW Swiss mice. The mice were weighed (average weight: 20 g), placed into cages (four or six mice to a cage), and on day zero the mice were inoculated with 0.2 ml of a freshly prepared saline suspension (0.15 M NaCl) containing 1×10^7 tumor cells/ml or a total of 2×10^6 cells This inoculum was freshly prepared using "transfer" mice, which had been injected with tumor cells the previous week; it was obtained via the following steps: (1) the removal of cells from the peritoneal cavity of the sacrificed transfer mouse, (2) alternate centrifugation and washing operations (2-3 times with cold saline) to remove blood and other components, and (3) dilution of the volume of the packed cell with saline (1:3). A final centrifugation was carried out at 1000 RPM over a two minute period. A cell count was made on a 2,000-fold dilution of this 1:3 suspension by means of a Coulter Counter. A final dilution to 1×10^7 cells/ml was made, based on the average count.
On day 1, solutions of the test compounds were prepared, and each mouse in a set of four or six were injected with the same test compound at the same dosage. The doses were based on the average weight of the animals (cage weight). Also, beginning on day 1, two controls were employed containing six mice per control:
(1) Normal Control: This consisted solely of the carrier or diluent used in combination with the test compound; and
(2) Positive Control: This consisted solely of known anti-tumor agent cis-[Pt(NH3)2 Cl2 ] in saline (8 mg/kg) to test the response of the biological system.
The effectiveness of a test compound was measured in terms of the % increase in life span (%ILS) of the test mice relative to the Normal Control (Calculated from the day of tumor inoculation, i.e., day zero). To standardize the test data and permit intercomparisons, the day of evaluation was arbitrarily taken as that day corresponding to twice the mean life span (or average day of death) of the control. This established a practical upper limit of 100% on the %ILS attainable. For calculation purposes, the survivors of the day of evaluation were considered to have died on that day. The %ILS was calculated as follows: [formula] ILS values in excess of 50% were interpreted as antitumor activity, whereas values in excess of 75% indicated excellent antitumor activity.
All test compounds were evaluated in water containing 0.1-0.3% of the suspending agent "Klucel" (hydroxypropylcellulose).
Tables 3 and 4, infra, show the criticality of the ring size and the thiocyanato substituents, respectively. The protocols for determining effectiveness for the products in Tables 3 and 4 were identical to the procedure employed for determining the anti-tumor effectiveness of the products in Table 2.

[2] = test system: testicular and ovarian tumors; conditions: background; cited from earlier work
S180 Ascites [3] = assay: ED90, LD50 and therapeutic index, S180 ascites; type: in vivo, mice; set-up: ED90: unit not given here; conditions: for Therapeutic Index: mouse, in vivo
Experimental: The effective dose (ED90), lethal does (LD50) and therapeutic index (TI) were determined, via the method of Miller and Taiter (Reported by R. A. Turner, "Screening Methods in Pharmacology", Academic Press, New York, pages 61-62 (1976)).
In this study, ED90 represents the dose which causes a 50% increase in life span (ILS) in 90% of the test animals (mice), determined graphically. The LD50 value represents the lethal dose in 50% of said animals.

[4] = dose 5 mg/kg, on day of evaluation (twice mean life span of control)
[5] = dose 10 mg/kg, on day of evaluation
[6] = dose 20 mg/kg, on day of evaluation
[7] = dose 40 mg/kg, on day of evaluation
[8] = dose 80 mg/kg, on day of evaluation
[9] = dose 160 mg/kg, on day of evaluation

Structure (SMILES)	Best % ILS (S180 ascites [1])	% ILS (S180 ascites [1]; dose 5 mg/kg)	Survivors (S180 ascites [1]; [4])	% ILS (S180 ascites [1]; dose 10 mg/kg)	Survivors (S180 ascites [1]; [5])	% ILS (S180 ascites [1]; dose 20 mg/kg)	Survivors (S180 ascites [1]; [6])	% ILS (S180 ascites [1]; dose 40 mg/kg)	Survivors (S180 ascites [1]; [7])	% ILS (S180 ascites [1]; dose 80 mg/kg)	Survivors (S180 ascites [1]; [8])	% ILS (S180 ascites [1]; dose 160 mg/kg)	Survivors (S180 ascites [1]; [9])	Therapeutic Index (S180 Ascites [3])	also measured
N.N.[Cl][Pt][Cl] [Positive Control, cis-[Pt(NH3)2 Cl2]]	–	–	–	–	–	–	–	–	–	–	–	–	–	–	Positive Control Survivors (S180 ascites [1]; 8 mg/kg in saline, run beside the test compound): 2 of 6 and 3 of 6 and 1 of 4 and 1 of 6 and 0 of 6; anti-tumor activity (in words) [2]: singularly successful in bringing about a regression of testicular and ovarian tumors
N#C[S][Pd][S]C#N.NC1CCCCC1N (stereo not drawn) [Ex. 3, Bis(ThiocYanato)-1,2-Diaminocyclohexanepalladium(II)]	100% and 75%	0%	0 of 4	5%	0 of 4	1%	0 of 4	-1% and -3%	0 of 4	75% and 100%	3 of 4 and 4 of 4	39%	1 of 4	2.0 and 2.8	% ILS (S180 ascites [1]; dose 60 mg/kg): 22%; Survivors (S180 ascites [1]; dose 60 mg/kg, on day of evaluation): 0 of 4; % ILS (S180 ascites [1]; dose 100 mg/kg): 79%; Survivors (S180 ascites [1]; dose 100 mg/kg, on day of evaluation): 2 of 4; % ILS (S180 ascites [1]; dose 120 mg/kg): 36%; Survivors (S180 ascites [1]; dose 120 mg/kg, on day of evaluation): 2 of 4; % ILS (S180 ascites [1]; dose 140 mg/kg): 36%; Survivors (S180 ascites [1]; dose 140 mg/kg, on day of evaluation): 1 of 4
Cc1cc2c(cc1C)[NH][Pd]([S]C#N)([S]C#N)[NH]2 [Ex. 6, Bis(Thiocyanato)-4,5-Dimethyl-o-Phenylenediaminepalladium(II)]	65%	-1%	0 of 6	24%	0 of 6	10%	0 of 6	2%	0 of 6	13%	0 of 6	65%	2 of 6	1.8	ED90 (S180 Ascites [3]; dose which causes a 50% increase in life span in 90% of the mice, determined graphically): 200
